In US11103488B2, “Methods of treating autoimmune, respiratory and inflammatory disorders by inhalation of roflumilast N-oxide” (Incozen Therapeutics Pvt. Ltd., priority 2013, dated 2021):

How the values were obtained:
[1] = system: macrophage infiltration; assay: Acute cigarette smoke induced cell infiltration, macrophages; assay type: in vivo, female Balb/c mice; details: for Percent inhibition in macrophage infiltration: intranasal, day 1 to day 4
Protocol: (§1) Animals were acclimatized for seven days prior to the start of the experiment. The animals were randomly distributed to various groups based on their body weight. For oral administration of roflumilast and for intranasal administration of roflumilast N-oxide, roflumilast or roflumilast N-oxide were prepared as a suspension in a suitable vehicle. On day 1, mice were administered roflumilast N-oxide or roflumilast and after 1 hour, the animals were placed in a whole body exposure box. On day 1 and day 2, the mice were exposed to the mainstream smoke of 6 cigarettes, and 8 cigarettes on day 3 and day 4. Exposure to the smoke of each cigarette lasted for 10 minutes (cigarettes were completely burned in the first two minutes and followed by an air flow with animal ventilator, then 20 minutes exposure to fresh room air). After every second cigarette an additional break of 20 minutes with exposure to fresh room air was conducted. Control animals were exposed to room air chamber. From day 1 to day 4, the animals were administered roflumilast N-oxide or roflumilast. On day 5, 24 hours after the last cigarette smoke (CS) exposure, the animals were exsanguinated under anaesthesia, the trachea were cannulated and the lungs were lavaged with 0.5-ml aliquots of heparinised PBS (1 unit/ml) four times through tracheal cannula (total volume 2 ml). Bronchioalveolar (BAL) collected was stored at 2-8° C. until assayed for total cell and differential leukocyte count. BAL fluid was centrifuged (500×g for 10 minutes) and the resulting cell pellet was resuspended in 0.5 ml of heparinised saline. The total number of white blood cells was determined in BAL fluid and adjusted to 1×10^6 cell/ml. Differential cell count was calculated manually by diff-quick staining. Forty microliters of the cell suspension was centrifuged using cytospin 3 to prepare a cell smear. The cell smear was stained with a blood staining solution for differentiation and microscopically observed to identify cell type according to their morphological characteristics. The number of each cell type among 300 white blood cells in the cell smear were determined and expressed as a percentage, and the number of neutrophils and macrophages in each BAL fluid were calculated.
(§2) Roflumilast and roflumilast N-oxide as a suspension in polysorbate 80 (1% v/v) and methyl cellulose (MC) (0.5% w/v) were used for oral and intranasal administration respectively.

[2] = system: neutrophil infiltration; assay: Acute cigarette smoke induced cell infiltration, neutrophils; assay type: in vivo, female Balb/c mice; details: for Percent inhibition in neutrophil infiltration: intranasal, day 1 to day 4
Protocol: as §1, §2

[3] = 14-day repeat dose safety study; assay type: in vivo, Wistar Rats; details: Intratracheal, 1000 ug/kg/day, 14 days
Protocol: In order to determine the safety of roflumilast N-oxide by inhalation compared to roflumilast by oral administration, a 7- and 14-day repeat dose safety study was conducted according to the protocol given in Table 5 below.

[4] = Particle size distribution after micronization (Alpine Spiral Jet Mill); assay type: physicochemical; details: micronized
Text: Laser diffraction measurement of particle size can use a dry method (wherein a suspension of the compound/salt in an airflow crosses the laser beam) or a wet method (wherein a suspension of the compound/salt in a liquid dispersing medium, such as isooctane (e.g. if compound is soluble in isooctane) or 0.1% Tween 80 in water, crosses the laser beam). With laser diffraction, particle size may be measured, for example, with a Malvern Mastersizer or Sympatec apparatus. For example, particle size measurement and/or analysis by laser diffraction can use any or all of (preferably all of) the following: a Malvern Mastersizer longbed version, a dispersing medium of 0.1% Tween 80 in water, a stir rate of ca. 1500 rpm, ca. 3 mins sonification prior to final dispersion and analysis, a 300 RF (Reverse Fourier) lens, and/or the Fraunhofer calculation with Malvern software. Unless specified otherwise, all d50 and d90 measurements are measured by laser diffraction using a wet method.
Provided below is an exemplary method used for micronization of roflumilast N-Oxide using an Alpine Spiral Jet Mill (HOSOKAWA). The process involved the following steps • 15 gm of Roflumilast N-oxide was weighed. • Main knob for compressed air supply was opened. • Adjusted venture pressure at 6.0 bar and ring pressure at 0.5 bar. • Roflumilast N-oxide was added at a feed rate of ˜200 mg/min manually through the hopper. • After completion of micronization, main air supply knob was turned off and micronized roflumilast N-oxide was collected

O=C(Nc1c(Cl)c[n+]([O-])cc1Cl)c1ccc(OC(F)F)c(OCC2CC2)c1 [Roflumilast N-oxide]
ED50 ([1]; Mus musculus, Macrophage, inhaled or nasal, intranasal administration, read-out: 50% inhibition (ED50) dose, macrophage infiltration): 0.049 mg/kg | Percent inhibition in macrophage infiltration ([1]; 0.003 mg/kg): 50.68% | Percent inhibition in macrophage infiltration ([1]; 0.03 mg/kg): 55.10% | Percent inhibition in macrophage infiltration ([1]; 0.3 mg/kg): 62.79% | Percent inhibition in macrophage infiltration ([1]; 3 mg/kg): 63.35% | ED50 ([2]; Mus musculus, Neutrophil, inhaled or nasal, intranasal administration, read-out: 50% inhibition (ED50) dose, neutrophil infiltration): 0.038 mg/kg | Percent inhibition in neutrophil infiltration ([2]; 0.003 mg/kg): 26.60% | Percent inhibition in neutrophil infiltration ([2]; 0.03 mg/kg): 59.28% | Percent inhibition in neutrophil infiltration ([2]; 0.3 mg/kg): 66.49% | Percent inhibition in neutrophil infiltration ([2]; 3 mg/kg): 72.08% | MORTALITY [3]: No Mortality | Particle Size Distribution (PSD), D10 [4]: 0.777 μm | Particle Size Distribution (PSD), D50 [4]: 1.564 μm | Particle Size Distribution (PSD), D90 [4]: 3.021 μm
